Assay results from PubChem BioAssay AID1963867 (Molecular Pharmacology Branch, DTP, NCI, 2024).

Test system: KRAS-mutant PDC tumor spheroid with HUVEC/MSC, viability
Assay: Anticancer human tumor 327498-153-R-J2-PDC patient-derived uterine carcinosarcoma cell line growth inhibition [KRAS2]
Details: for IC50: curve of first compound; for viability, T/C: stronger effect = lower value
How it was run: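 Combination screen of spheroid viability in tumor-cell co-cultures with endothelial (HUVEC) and mesenchymal stem cell stroma. Each agent was tested in half-log dilutions, topping at clinical Cmax or at 10 microM without a known Cmax.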

[1] = second compound 0.1 µM, first compound 0.0316 µM
[2] = second compound 0.1 µM, first compound 0.1 µM
[3] = second compound 0.1 µM, first compound 0.316 µM
[4] = second compound 0.1 µM, first compound 1 µM
[5] = second compound 0.1 µM, first compound 3.16 µM
[6] = second compound 0.1 µM, first compound 10 µM
[7] = second compound 0.316 µM, first compound 0.0316 µM
[8] = second compound 0.316 µM, first compound 0.1 µM
[9] = second compound 0.316 µM, first compound 0.316 µM
[10] = second compound 0.316 µM, first compound 1 µM
[11] = second compound 0.316 µM, first compound 3.16 µM
[12] = second compound 0.316 µM, first compound 10 µM
[13] = second compound 1 µM, first compound 0.0316 µM
[14] = second compound 1 µM, first compound 0.1 µM
[15] = second compound 1 µM, first compound 0.316 µM
[16] = second compound 1 µM, first compound 1 µM
[17] = second compound 1 µM, first compound 3.16 µM
[18] = second compound 1 µM, first compound 10 µM
[19] = second compound 3.16 µM, first compound 0.0316 µM
[20] = second compound 3.16 µM, first compound 0.1 µM
[21] = second compound 3.16 µM, first compound 0.316 µM
[22] = second compound 3.16 µM, first compound 1 µM
[23] = second compound 3.16 µM, first compound 3.16 µM
[24] = second compound 3.16 µM, first compound 10 µM
[25] = second compound 10 µM, first compound 0.0316 µM
[26] = second compound 10 µM, first compound 0.1 µM
[27] = second compound 10 µM, first compound 0.316 µM
[28] = second compound 10 µM, first compound 1 µM
[29] = second compound 10 µM, first compound 3.16 µM
[30] = second compound 10 µM, first compound 10 µM
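Also: spheroids exposed to agents for seven days before reading.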
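For viability, T/C in this document: 100% = DMSO vehicle wells so lower means fewer viable cells.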

Row | SMILES | IC50 (second compound 0.1 µM) [nM] | IC50 (second compound 0.316 µM) [nM] | IC50 (second compound 1 µM) [nM] | IC50 (second compound 3.16 µM) [nM] | IC50 (second compound 10 µM) [nM] | viability, T/C [1] [%] | viability, T/C [2] [%] | viability, T/C [3] [%] | viability, T/C [4] [%] | viability, T/C [5] [%] | viability, T/C [6] [%] | viability, T/C [7] [%] | viability, T/C [8] [%] | viability, T/C [9] [%] | viability, T/C [10] [%] | viability, T/C [11] [%] | viability, T/C [12] [%] | viability, T/C [13] [%] | viability, T/C [14] [%] | viability, T/C [15] [%] | also measured
1 | CCNC(=O)CC1N=C(c2ccc(Cl)cc2)c2cc(OC)ccc2-n2c(C)nnc21 (stereo not drawn) + COc1cc2nc(C)nc(NC(C)c3cc(N)cc(C(F)(F)F)c3)c2cc1OC1CCOC1 | 459 | 420 | 352 | 189 | 172 | 84.7 | 81.5 | 59.2 | 30.5 | 21.1 | 20.4 | 74 | 69.1 | 57.6 | 27.5 | 23.2 | 24.2 | 75.6 | 75.2 | 52.7 | viability, T/C [16]: 22.6%; viability, T/C [17]: 20.4%; viability, T/C [18]: 18.2%; viability, T/C [19]: 75%; viability, T/C [20]: 56%; viability, T/C [21]: 47.2%; viability, T/C [22]: 26.5%; viability, T/C [23]: 20.6%; viability, T/C [24]: 21.7%; viability, T/C [25]: 63.7%; viability, T/C [26]: 52.7%; viability, T/C [27]: 46.4%; viability, T/C [28]: 23.6%; viability, T/C [29]: 19.5%; viability, T/C [30]: 13.9%
2 | COc1cc2nccc(Oc3ccc(NC(=O)C4(C(=O)Nc5ccc(F)cc5)CC4)cc3)c2cc1OC |  |  |  |  |  |  |  |  |  |  |  |  |  |  |  |  |  |  |  |  | viability, T/C (compound 0.0316 µM): 95.8% [middle of 5 runs]; viability, T/C (compound 0.1 µM): 94.9% [middle of 5 runs]; viability, T/C (compound 0.316 µM): 97.2% [middle of 5 runs]
3 | COC(=O)c1ccc2c(C(=Nc3ccc(N(C)C(=O)CN4CCN(C)CC4)cc3)c3ccccc3)c(O)[nH]c2c1 + C=CC(=O)N1CCN(c2nc(=O)n(-c3c(C)ccnc3C(C)C)c3nc(-c4c(O)cccc4F)c(F)cc23)C(C)C1 | 68.6 | < 31.6 | < 31.6 | < 31.6 | < 31.6 | 55.6 | 47 | 33.8 | 21.5 | 8.48 | 8.12 | 48.5 | 46.1 | 31.3 | 12.5 | 6.86 | 4.83 | 46 | 44.4 | 27.5 | viability, T/C [16]: 16.6%; viability, T/C [17]: 7.4%; viability, T/C [18]: 3.38%; viability, T/C [19]: 42.4%; viability, T/C [20]: 35%; viability, T/C [21]: 19.1%; viability, T/C [22]: 11.5%; viability, T/C [23]: 6.26%; viability, T/C [24]: 4.47%; viability, T/C [25]: 39%; viability, T/C [26]: 31.1%; viability, T/C [27]: 22.9%; viability, T/C [28]: 13.2%; viability, T/C [29]: 3.4%; viability, T/C [30]: 1.04%
